Assay results published in the supplement of paper PMC13207355.

Experiments:
Details in all cases: exposure time: 72 h
[1] = tested on: E13 (patient-derived glioblastoma stem cells of classical subtype); test: surviving fraction (nuclei count normalised to DMSO); higher = more cells surviving (less toxic)
[2] = tested on: E21 (patient-derived glioblastoma stem cells of mesenchymal subtype); test: as above
[3] = tested on: E28 (patient-derived glioblastoma stem cells of classical subtype); test: as above
[4] = tested on: E34 (patient-derived glioblastoma stem cells of proneural subtype); test: as above
[5] = tested on: E57 (patient-derived glioblastoma stem cells of mesenchymal subtype); test: as above
[6] = tested on: FT3469 (normal neural stem cell line); test: as above
[7] = tested on: E13; test: phenotypic distance (Euclidean, principal components) from DMSO controls (arbitrary units); higher = stronger morphological change
[8] = tested on: E21; test: as above
[9] = tested on: E28; test: as above
[10] = tested on: E34; test: as above
[11] = tested on: E57; test: as above
[12] = tested on: FT3469; test: as above
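Wherever phenotypic distance (Euclidean, principal components) from DMSO controls is given: cell Painting imaging in 384-well plates, CellProfiler features reduced to at least 20 principal components, Euclidean distance versus same-plate DMSO vehicle wells (0.1% v/v), median over six images per well.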
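Wherever surviving fraction (nuclei count normalised to DMSO) is given: nuclei counted by high-content imaging of Hoechst-stained cells in laminin-coated 384-well plates, relative to 0.1% DMSO vehicle wells, with staurosporine as cell-death control.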

C[C@H](NC(=O)[C@@H](O)c1cc(F)cc(F)c1)C(=O)N[C@@H]1C(=O)N(C)c2ccccc2-c2ccccc21
Details	phenotypic distance	surviving fraction
[1], 4.1 nM	–	1.02
[1], 12.3 nM	–	1.075
[1], 37 nM	–	1.02
[1], 111.1 nM	–	1.03
[1], 333.3 nM	–	1.08
[1], 1000 nM	–	1.07
[1], 3000 nM	–	0.995
[2], 4.1 nM	–	0.89
[2], 12.3 nM	–	0.9941
[2], 37 nM	–	0.938
[2], 111.1 nM	–	0.902
[2], 333.3 nM	–	0.872
[2], 1000 nM	–	0.883
[2], 3000 nM	–	0.898
[3], 4.1 nM	–	0.852
[3], 12.3 nM	–	0.866
[3], 37 nM	–	0.942
[3], 111.1 nM	–	0.918
[3], 333.3 nM	–	0.925
[3], 1000 nM	–	0.835
[3], 3000 nM	–	0.891
[4], 4.1 nM	–	0.841
[4], 12.3 nM	–	0.811
[4], 37 nM	–	0.801
[4], 111.1 nM	–	0.907
[4], 333.3 nM	–	0.862
[4], 1000 nM	–	0.775
[4], 3000 nM	–	0.875
[5], 4.1 nM	–	0.906
[5], 12.3 nM	–	0.947
[5], 37 nM	–	0.939
[5], 111.1 nM	–	0.922
[5], 333.3 nM	–	0.9779
[5], 1000 nM	–	0.943
[5], 3000 nM	–	0.931
[6], 4.1 nM	–	0.89
[6], 12.3 nM	–	0.882
[6], 37 nM	–	0.89
[6], 111.1 nM	–	0.906
[6], 333.3 nM	–	0.896
[6], 1000 nM	–	0.875
[6], 3000 nM	–	0.828
[7], 4.1 nM	0.77	–
[7], 12.3 nM	0.711	–
[7], 37 nM	0.622	–
[7], 111.1 nM	0.7795	–
[7], 333.3 nM	0.785	–
[7], 1000 nM	0.723	–
[7], 3000 nM	0.862	–
[8], 4.1 nM	0.769	–
[8], 12.3 nM	2.05	–
[8], 37 nM	1.5	–
[8], 111.1 nM	0.896	–
[8], 333.3 nM	3.99	–
[8], 1000 nM	1.02	–
[8], 3000 nM	1.01	–
[9], 4.1 nM	0.845	–
[9], 12.3 nM	0.88	–
[9], 37 nM	0.919	–
[9], 111.1 nM	0.756	–
[9], 333.3 nM	0.96	–
[9], 1000 nM	1.03	–
[9], 3000 nM	1.13	–
[10], 4.1 nM	1.26	–
[10], 12.3 nM	0.926	–
[10], 37 nM	1.15	–
[10], 111.1 nM	1.04	–
[10], 333.3 nM	1.01	–
[10], 1000 nM	1.24	–
[10], 3000 nM	1.49	–
[11], 4.1 nM	1.25	–
[11], 12.3 nM	1.21	–
[11], 37 nM	1.87	–
[11], 111.1 nM	1.2	–
[11], 333.3 nM	1.284	–
[11], 1000 nM	1.34	–
[11], 3000 nM	1.43	–
[12], 4.1 nM	1.01	–
[12], 12.3 nM	0.677	–
[12], 37 nM	0.997	–
[12], 111.1 nM	0.721	–
[12], 333.3 nM	1.08	–
[12], 1000 nM	0.977	–
[12], 3000 nM	0.991	–
